Measurements reported in patent US20250134995A1, “SAPONIN-BASED ADJUVANTS AND METHODS OF CHARACTERIZING SAME” (priority 2023, published 2025).
Like-named read-outs stand apart in the source and are kept apart here.

Columns and labels:
[1] = in vitro, free QS-21; cited from earlier work
[2] = in vivo; cited from earlier work

## QS-21
[1]
  hemolytic activity: shows hemolytic activity
[2]
  pain at the injection site: immediate pain at the injection site

## saponins
mouse, in vivo
  effect of presence of SARS-COV-2 antigen on relative activity in urine and kidney: increased relative activity
  excretion pathway: rapidly excreted via the kidneys into urine
  injected radioactive dose per gram tissue at the injection site and in the iliac LN: high percentage
  level in bone marrow after the peak: declined
  level in the QF and the iliac LN: low levels
  relative activity in plasma, urine, and kidney after the peak: rapid decline
  relative activity in the liver: low levels
  systemic accumulation: do not accumulate systemically
  time of highest relative activity in testes, ovaries and uterus: 1 h
  time of peak in bone marrow: 3 h and 6 h
  time of peak relative activity in plasma, urine, and kidney: 1 to 3 h
  time to near complete clearance (urine as major excretion pathway): ≤ 7 days
  time to removal from the injection site: ≤ 48 h

## CC(C)CCC[C@@H](C)[C@H]1CC[C@H]2[C@@H]3CC=C4C[C@@H](O)CC[C@]4(C)[C@H]3CC[C@]12C [cholesterol, cholesterol [1-2-3H (N)]]
After 168 h
  elimination: lack of complete elimination
After QF injection
  distribution to the iliac LN compared to inguinal LN and popliteal LN: substantial
both, CD-1 IGS, mouse, in vivo
  plateau of relative activity in intestines, lungs, and bone marrow: 5-20 % ID/g tissue
  plateau of relative radioactivity in plasma and kidney: 5%-20%
  start of plateau of relative activity in testes, ovaries and uterus: 24 h
  time at which systemic levels reached a plateau: around 24 h
  time from which cholesterol levels are significantly higher than saponin levels at the injection site: 3 to 6 h
  time to removal from the injection site: ≤ 48 h
Compared to saponin counts
  decline of counts at the injection site: slower decline
Early timepoints, in contrast to saponins
  early relative radioactivity in plasma and kidney: lower relative radioactivity
mouse, in vivo
  activity in urine: Barely detectable activity
  injected radioactive dose per gram tissue at the injection site and in the iliac LN: high percentage
  plateauing activity in spleen, heart, and brain: lower levels
  relative activity in the liver: low levels
  relative activity in the liver versus saponins: slightly higher relative activity
  reproductive organ with the highest relative activity: highest relative activity of cholesterol detected in the ovaries
